Measurements from ChEMBL document CHEMBL5247658, “Development of Fluorescent 4-[4-(3H-Spiro[isobenzofuran-1,4'-piperidin]-1'-yl)butyl]indolyl Derivatives as High-Affinity Probes to Enable the Study of σ Receptors via Fluorescence-Based Techniques” (J Med Chem, 2023).

How the values were obtained:
[1] = target: T1, Sigma non-opioid intracellular receptor 1 (Cavia porcellus, UniProt Q60492); experiment: Displacement of [3H](+)-pentazocine from sigma 1 receptor in guinea pig brain membranes assessed as inhibition constant by competitive binding assay; assay type: cell membranes, Membrane
[2] = target: T2, Sigma intracellular receptor 2 (Rattus norvegicus, UniProt Q5U3Y7); experiment: Displacement of [3H]DTG from sigma 2 receptor in Wistar Han rat liver membrane assessed as inhibition constant by competitive binding assay; assay type: cell membranes
T2 sequence (Q5U3Y7 whole entry): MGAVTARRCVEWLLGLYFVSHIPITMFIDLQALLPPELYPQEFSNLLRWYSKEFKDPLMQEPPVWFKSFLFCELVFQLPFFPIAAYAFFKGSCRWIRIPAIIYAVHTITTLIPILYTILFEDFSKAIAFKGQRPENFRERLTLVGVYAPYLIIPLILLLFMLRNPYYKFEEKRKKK

[3] = Drug accumulation in human MCF7 cells assessed as increase in mean fluorescence intensity pretreated with (+)-pentazocine for 60 mins followed by compound addition incubated for 45 mins by flow cytometric analysis; assay type: ADME, cell-based; details: mcf7, 0.75 h, dose 0.01-1 µM
[4] = target: Sigma non-opioid intracellular receptor 1 (Homo sapiens, UniProt Q99720); experiment: Binding affinity to sigma 1 receptor (unknown origin) assessed as inhibition constant
[5] = target: T3, Sigma intracellular receptor 2 (Homo sapiens, UniProt Q5BJF2); experiment: Binding affinity to sigma 2 receptor (unknown origin) assessed as inhibition constant
[6] = Drug accumulation in human MCF7 TMEM97 knock out cells assessed as increase in mean fluorescence intensity pretreated with (+)-pentazocine for 60 mins followed by compound addition incubated for 45 mins by flow cytometric analysis; assay type: ADME, cell-based; details: mcf7, 0.75 h, dose 0.01-1 µM
[7] = target: T3, Sigma intracellular receptor 2; experiment: Binding affinity to sigma 2 receptor in human MCF7 cells assessed as increase in fluorescent intensity pretreated with (+)-pentazocine for 60 mins followed by compound addition incubated for 45 mins by flow cytometric analysis; assay type: cell-based; details: dose 0.01-1 µM
[8] = Drug uptake in human MCF7 cells expressing sigma 1 receptor assessed as increase in fluorescence intensity in presence of (+)-pentazocine incubated at 1 to 10000 nM for 45 mins by flow cytometric analysis; assay type: ADME, cell-based; details: mcf7, 0.75 h, 10 µM, dose 1-10000 nM
[9] = target: T1, Sigma non-opioid intracellular receptor 1; experiment: Displacement of [3H](+)-pentazocine from sigma 1 receptor in guinea pig brain membranes assessed as inhibition constant by Wallac 1450 MicroBeta liquid scintillation counter; assay type: cell membranes, Membrane
[10] = target: T2, Sigma intracellular receptor 2; experiment: Displacement of [3H]RHM-1 from sigma 2 receptor in Wistar Han rat liver membrane assessed as inhibition constant by competitive binding assay; assay type: cell membranes

T3 sequence (Q5BJF2 whole entry): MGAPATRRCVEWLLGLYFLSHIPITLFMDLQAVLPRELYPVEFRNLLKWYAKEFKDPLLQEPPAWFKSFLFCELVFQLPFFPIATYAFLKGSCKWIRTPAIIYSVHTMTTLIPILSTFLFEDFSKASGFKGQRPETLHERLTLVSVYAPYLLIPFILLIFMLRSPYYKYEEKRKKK
T1 sequence (Q60492 whole entry): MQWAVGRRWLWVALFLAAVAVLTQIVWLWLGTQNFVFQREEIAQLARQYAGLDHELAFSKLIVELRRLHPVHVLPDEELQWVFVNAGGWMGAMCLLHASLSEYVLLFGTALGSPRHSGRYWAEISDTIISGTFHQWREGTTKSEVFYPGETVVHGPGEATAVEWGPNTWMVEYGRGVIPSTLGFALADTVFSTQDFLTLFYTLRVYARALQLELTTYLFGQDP
Sigma non-opioid intracellular receptor 1 (Homo sapiens, UniProt Q99720), sequence (Q99720 whole entry): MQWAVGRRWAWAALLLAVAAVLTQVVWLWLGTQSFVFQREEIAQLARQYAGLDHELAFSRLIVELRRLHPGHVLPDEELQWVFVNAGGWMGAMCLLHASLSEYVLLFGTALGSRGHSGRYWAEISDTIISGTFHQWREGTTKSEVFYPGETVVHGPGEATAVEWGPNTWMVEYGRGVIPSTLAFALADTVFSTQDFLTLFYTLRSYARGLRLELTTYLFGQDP

## COc1cc2c(cc1OC)CN(CCCN1CCc3c(OCCCCCCN4C(=O)c5ccc(N(C)C)cc5C4=O)cccc3C1=O)CC2
[1]
  Ki: > 5000 nM
[2]
  Ki: 10.2 nM

## C[N+]1=C(/C=C/C=C/C=C2/N(CCCCCC(=O)Nc3ccc4ccn(CCCCN5CCC6(CC5)OCc5ccccc56)c4c3)c3ccccc3C2(C)C)C(C)(C)c2ccccc21.[I-]
[3]
  Drug uptake: Dose-Dependent Effect

## CC1CCN(CCCCc2cccc3cc(OCCCCCCN4C(=O)c5ccc(N(C)C)cc5C4=O)ccc23)CC1
[4]
  Ki: 0.03 nM
[5]
  Ki: 17.9 nM

## CN(C)c1ccc2c(c1)C(=O)N(Oc1cccc3c1CCCC3CCCN1CCN(C3CCCCC3)CC1)C2=O (configuration not stated)
[5]
  Ki: 6.9 nM

## C[N+]1=C(/C=C/C=C/C=C2\N(CCCCCC(=O)NCCCCCCn3cc(CCCCN4CCC5(CC4)OCc4ccccc45)c4ccccc43)c3ccccc3C2(C)C)C(C)(C)c2ccccc21.[I-]
[3]
  Drug uptake: Dose-Dependent Effect
[6]
  Drug uptake: Dose-Dependent Effect
[7]
  Activity: Dose-Dependent Effect
[8]
  Drug uptake: Not Active

## COc1ccc(C)cc1NC(=O)OC1C[C@H]2CCC[C@@H](C1)N2CCCCCCCCCCS(=O)(=O)c1cccc2c(N(C)C)cccc12 (some centres not stated)
[9]
  Ki: 1.05 nM
[10]
  Ki: 14 nM
